Publication PMC12308784, “Organometallic Half-Sandwich Complexes of 1,10-Phenanthroline Derivatives with Improved Solubility, Albumin-Binding, and Nanoformulation Potential Targeting Drug Resistance in Cancer” (Inorganic Chemistry, 2025)

Legend:
[1] = time-dependent stability in PBS’ by UV–vis and 1H NMR; type: physicochemical; settings: pH 7.4, 100 mM chloride
Experimental: As a first step, time-dependent stability measurements were conducted by UV–visible (UV–vis) for all the metal complexes (Figure S13), focusing on their stability in a modified phosphate buffer saline (PBS’) medium to mimic conditions relevant to intravenous applications regarding the pH (7.4) and the chloride ion concentration (100 mM). […] Unfortunately, determining the equilibrium constants for direct complex formation was not possible due to the poor solubility of the ligands in water. […] The robust stability of the analogous IrCp* complexes was also reported.
Figure S14. Time-dependent UV -Vis spectra of metal complexes (a) cRuCymBP = 69 µM; (b) cRhCp*BP =
66 µM; (c) cRuCymDCP = 99 µM; (d) cRhCp*DCP = 85 µM) in PBS' buffer over 24 h (a-d). Spectra were recorded
Figure S15. Time-dependent 1H NMR spectra of metal complex RhCp*BP (66 µM) at pH 7.40 over 5 days.
{10% (v/v) D2O / 90% (v/v) H2O; PBS’; t = 25 °C} […]

[2] = molecular target: T1, human serum albumin (HSA) (Homo sapiens, UniProt P02768); assay: HSA binding by capillary zone electrophoresis (CZE); settings: for equiv of complex bound on HSA: CZE
T1 construct: purchased Sigma-Aldrich A8763
T1 sequence (P02768 25-609): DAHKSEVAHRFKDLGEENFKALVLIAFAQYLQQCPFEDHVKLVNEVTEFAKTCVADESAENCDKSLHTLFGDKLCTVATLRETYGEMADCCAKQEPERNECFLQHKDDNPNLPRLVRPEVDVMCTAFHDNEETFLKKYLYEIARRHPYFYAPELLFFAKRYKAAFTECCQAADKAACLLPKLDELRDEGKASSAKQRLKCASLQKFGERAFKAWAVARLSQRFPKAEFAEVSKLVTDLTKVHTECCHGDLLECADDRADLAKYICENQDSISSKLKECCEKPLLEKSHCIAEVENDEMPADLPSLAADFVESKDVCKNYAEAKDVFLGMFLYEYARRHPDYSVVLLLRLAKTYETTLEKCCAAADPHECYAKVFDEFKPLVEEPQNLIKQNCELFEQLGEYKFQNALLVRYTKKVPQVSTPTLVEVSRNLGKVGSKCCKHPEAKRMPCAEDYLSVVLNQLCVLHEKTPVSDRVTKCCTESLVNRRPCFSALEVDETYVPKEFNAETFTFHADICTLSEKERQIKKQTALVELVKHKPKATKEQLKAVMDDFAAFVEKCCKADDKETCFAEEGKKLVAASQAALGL
Experimental: UV–vis is a simple technique to follow the interaction of half-sandwich metal complexes with HSA in time. Charge transfer bands of the complexes were monitored over a 12 h period (as shown for the RhCp*BP – HSA (1.5:1) system in Figure S16). An initial rapid spectral change can be observed, which is followed by a slower spectral evolution. This phenomenon may indicate (i) a rapid binding interaction followed by a slow rearrangement of the coordination sphere around the Rh center or (ii) that the differing accessibility of binding sites results in biphasic binding kinetics. […] In contrast, minimal spectral changes were detected for the RuCym complexes. […] To further substantiate this observation, CZE was applied. In Figure , the peak of the free RhCp*BP complex is clearly separated from the peaks of the comigrating protein and the protein-bound complex. […] Whereas ca. 50% of the complex is protein-bound after the first 5 min, the equilibration takes ca. 3–4 h. This observation confirms that the accessibility of binding sites for the complexes is not equal in HSA.
6 (a) Electropherograms of the RhCp*BP complex in the absence and presence of 0.5 equiv HSA at pH = 7.4 followed in time and (b) the relative peak area of free RhCp*BP at 210 nm (migration time: 7.4 min) as a function of incubation time. {c complex = 95 μM, c HSA = 48 μM; U = 8 kV; current = 105 μA; PBS’; t = 25 °C}.
The interaction of complex [RhCp*(BP)-Cl]Cl (ca. 100 μM) with HSA (ca. 50 μM) in PBS’ medium was studied by an Agilent 7100 capillary electrophoresis system equipped with a diode-array UV–vis detector (200–600 nm). Fused silica capillaries of 48 cm total length with a 75 μm inner diameter were used (Agilent Technologies). The background electrolyte (BGE) was PBS’ buffer (pH = 7.4), in which the samples were also made. The conditioning process of new capillaries and daily preparation were performed as described formerly. In order to ensure a steady baseline, the capillary was flushed with BGE (2 min) before each run and was rinsed with NaOH (0.1 M; 1.5 min), H2O (1.5 min), and then with BGE (2 min) after each run. The capillary cassette was kept at 25 °C. The hydrodynamic injection was used at 50 mbar for 5 s injection time. For separation, an 8 kV voltage (with ca. 100 μA current) was applied. The sample run time was set to 18 min. The computer program ChemStation (Agilent) was used to record electropherograms.

[3] = ternary complex formation with histidine model 1-methylimidazole by 1H NMR; settings: PBS’ pH 7.4
Excerpt: Our other aim was to investigate the binding kinetics of RuCymBP over a longer period of time, since MeIm has no such stability problems compared to HSA in a 2 week follow-up.
Slow exchange of the aqua and chlorido complexes on the NMR time scale is not unique for RuCym complexes; formerly we have observed the same phenomenon with 2-picolinate and cyclometalated 4-phenylthiazole complexes. , The ternary complex formation with MeIm is rather slow; at a 1:1 ratio, the emergence of a new peak can be observed after 6 days, and only ca. 10% ternary complex forms after 14 days. By increasing the MeIm excess to 10-fold, the ternary complex becomes detectable after 8 h and about 2/3 of the metal complex transforms to the ternary species after 14 days. ^1H NMR studies on the RhCp*BP – MeIm system indicated a more rapid and almost quantitative interaction (Figure S21). […] The quantity of the ternary complex formed with MeIm agrees very well with previously reported data on RhCp*BPY–MeIm (67%), although the complex formation was reported to be slower for the latter. […]
A Bruker AVANCE III HD Ascend 500 Plus instrument was used for NMR studies. For the characterization of the complexes both the ^1H and ^13C NMR spectra were recorded in CD3OD (10 mM, t = 25 °C). […]
Figure S 19. Fluorescence emission spectra of HSA in the presence of RhCp*BP over 5 h { cRhCp*BP = […]

[4] = 0.5 equiv HSA, PBS’ pH 7.4, 25 °C
[5] = c complex = 95 μM, c HSA = 48 μM, PBS’ pH 7.4, 25 °C

Compound	stability in PBS’ over 24 h [1]	free complex after 4 h [2, 4] [%]	equiv of complex bound on HSA [2]	complex protein-bound after the first 5 min [2, 5]	equilibration time of HSA binding [2, 5] [h]	time until the ternary complex is detectable ([3]; 10-fold MeIm excess) [h]	time until the ternary complex peak emerges ([3]; complex:MeIm 1:1) [days]	metal complex unbound after 24 h [2, 4] [%]
[Rh(III)(η^5-C5Me5)(bathophenanthroline)Cl]Cl [RhCp*BP]	no changes	7	at least 2 equiv	ca. 50%	3 to 4			
Cc1ccc(C(C)C)cc1.[Cl-].[Cl-].[Ru+2].c1ccc(-c2ccnc3c2ccc2c(-c4ccccc4)ccnc23)cc1 [RuCymBP, [Ru(II)(η^6-p-cymene)(bathophenanthroline)Cl]Cl]						8	6	
Cc1c(C)c(C)[c-](C)c1C.Clc1ccnc2c1ccc1c(Cl)ccnc12.[Cl-].[Cl-].[Rh+3] [RhCp*DCP, [Rh(III)(η^5-C5Me5)(4,7-dichloro-1,10-phenanthroline)Cl]Cl]			at least 2 equiv					21
